Measured values from paper PMC12627232 (MedComm, 2025).

What was measured:
B16F10 syngeneic model = test: B16F10 syngeneic model; format: in vivo; details: C57BL/6J mice, HDAC inhibitors by oral gavage, anti-PD-L1 intraperitoneal, 7-day treatment
Protocol: With the approval of the ethics committee of Shandong University, C57BL/6J mice were purchased from Charles River and fed in SPF conditions at the Model Animal Research Centre of Shandong University. To establish the B16F10 syngeneic model, cells in logarithmic growth phase were trypsinized with 0.25% trypsin, resuspended in sterile PBS, and adjusted to 1 × 10^6 cells/100 µL. The cell suspension (100 µL) was subcutaneously injected into the left axilla. When tumors reached to certain volume, mice were randomized (n = 5/group) and treated with Chidamide, LBH‐589, or SDFZ‐8 by oral gavage and intraperitoneal injection of anti‐PD‐L1. Tumor growth curves were plotted over a 7‐day treatment cycle. All procedures complied with AAALAC International guidelines for humane endpoint criteria.

[1] = tested on: immune cells of MC38 syngeneic model; test: Flow cytometry of tumor-infiltrating and spleen immune cells, MC38 model; format: in vivo, C57BL/6J mice
Protocol: After 14 days, the tumors and spleens were split, and cells were isolated to analyze the change in cancer immunity. For TILs, the tumors were incubated with the tumor digestion fluid (collagenase and hyaluronic acid included) and then filtered with a 200‐gauge mesh and centrifuged (100×g, 1 min). The supernatant was centrifuged (400×g, 5 min) and precipitated cells were purified by 40% percoll solution followed by RBC lysis and washing. For splenocytes, the spleen was passed through a 200‐gauge mesh, and splenocytes were collected after RBC lysis and washing.
The prepared cell suspensions were incubated with rat serum at room temperature for 30 min to block the FC‐receptor and incubated with fluorescent antibodies at 4°C for 1 h. For Foxp3 staining, Foxp3/Transcription Factor Staining Buffer Set (eBioscience; #00‐5523‐00) was used. For intracellular cytokines staining, cells were pre‐stimulated with 1 µg/mL ionomycin (Beyotime; #S1672), 50 ng/mL PMA (Sigma; #P1585) and Brefeldin A (BioLegend; #420601) for 4 h. Flow cytometry was conducted with FACS Celesta (BD Biosciences, USA) and analyzed with FlowJo software.

HDAC3/NCOR1 complex = test: HDACs enzymatic assay HDAC3; format: biochemical; details: Class I; mean ± SD of three
Protocol: HDACs enzymatic assays were conducted according to our previous work. […] Substrates (Boc‐Lys(acetyl)‐AMC for HeLa nuclear extract, Ac‐Leu‐Gly‐Lys (Tfa)‐AMC for HDAC4, HDAC5, HDAC6, HDAC7, HDAC9, HDAC10, and HDAC11, Boc‐Lys(triflouroacetyl)‐AMC for HDAC8 and Ac‐Leu‐Gly‐Lys(acetyl)‐AMC for HDAC1, HDAC2, HDAC3) were added to the mixture. The blank group was set to no enzyme or drug but contains substrates and the control group was set to no drug but contains substrates and enzymes to each 96‐well plate. After 30 min of incubation at 37°C, the mixture was terminated with 1 mg/mL trypsin and 3 µM TSA. After another 30 min, the fluorescence intensity was measured using a Varioskan plate reader at 360/460 nm. […] The inhibition curves and IC50 values were simulated and calculated using the log(inhibitor) versus response (three parameters) mode in GraphPad Prism software.

MDA-MB-231 cells = test: Western blotting (immunoblotting); format: cell-based, human; details: 24 h, western blotting
Source text: Anti‐H3 (#13998), anticleaved Caspase‐3 (#9661) and anti‐PARP (#9542) antibody was purchased from Cell Signal Technology (CST). Anti‐Caspase‐3 (T40044) was brought from Abmart. Antitubulin antibody (ab179484) was obtained from Abcam PLC. Anti‐Bcl‐2 (F0125) and anti‐Bax (F0037) antibody were purchased from Selleck Chemicals. Anti‐GAPDH antibody (AF1186) was obtained from Beyotime Inc. The protocol of Western blotting was the same as our previous works. In brief, 2.5 × 10^5 MDA‐MB‐231 cells were treated with different drugs or DMSO (equal volume to experimental groups) for 24 h and lysed with modified RIPA buffer. The cell lysates were added to loading buffer (Beyotime #P0015L) and heated in boiling water for 5 mins and then, together with biomarker (Epizymebiotech; 15–250 kDa), were electrophoresed in SDS‐PAGE gels under 80 V voltage until the biomarker reached the end of gels. Next, SDS‐PAGE gels and PVDF membrane were clipped together to perform transmembrane procedure under 350 mA currency for 1 h. Then after incubation with 5% skim milk, TBST, primary antibody and secondary antibody, the PVDF membrane was treated with ECL chemiluminescence solution (Boster Biological Technology #AR1174) and imaged by the imager (Imager 680 Amersham Imager).

MC38 syngeneic model = test: MC38 syngeneic model; format: in vivo; details: C57BL/6J mice, SDFZ-8 60 mg/kg qd i.g., 14-day treatment
Protocol: C57BL/6J mice were obtained from HFK Bioscience (Beijing, China) and fed in laminar flow cabinets under SPF conditions. With the approval of the ethics committee of Shandong University, the animal experiments were conducted. […]. By the time tumors reached certain volumes, SDFZ‐8 treatment (SDFZ‐8 in PBS solution containing 5% DMSO, 60 mg/kg, qd, i.g.) was started, with five animals per treatment group. Body weight and tumor size were measured every day during the 14‐day treatment.

MDA-MB-231 xenograft = MDA-MB-231 xenograft model; format: in vivo, BALB/c-nu mice; details: MDA-MB-231 xenograft, BALB/c-nu mice, 60 mg/kg/day oral gavage, 22 days
Protocol: BALB/c‐nu mice were obtained from Pengyue Co. Ltd. (Jinan, China) and were fed in laminar flow cabinets under specific pathogen‐free (SPF) conditions. With the approval of ethics committee of Shandong University, the animal experiments were conducted. To establish the MDA‐MB‐231 xenograft model, BALB/c‐nu mice (3–4 weeks old and 15–18 g body weight, male) were selected and injected subcutaneously into the armpits with 1.2 × 10^7 MDA‐MB‐231 cells. […] Body weight and tumor size were measured every 3 days during the 22‐day treatment.

Question: `Nc1cc(F)ccc1NC(=O)c1ccc(CNC(=O)/C=C/c2cccnc2)cc1` [Chidamide, reference compound] was tested. Which TGI (B16F10 syngeneic model) did it give?
Answer: 58%

Question: `Cc1[nH]c2ccccc2c1CCNCc1ccc(/C=C/C(=O)NO)cc1` [LBH-589, reference compound] was tested. Which TGI (B16F10 syngeneic model) did it give?
Answer: 53%

Question: How did the “PD-L1 and PD-1 expression in tumor-infiltrating immune cells” value [1] turn out when `O=C(CCCCCCC(=O)Nc1ccccc1)NO` [SAHA, Vorinostat, reference compound] was run?
Answer: upregulated

Question: And the “surface expression of MHC class II in DCs and macrophages” value [1]?
Answer: only impacted MHC II in DCs

Question: And the “M2 polarization of TAMs” value ([1]; CD206 marker)?
Answer: suppressed

Question: What about the “M1 polarization of TAMs” value ([1]; iNOS marker) of the same compound?
Answer: robustly promoted

Question: What about the “PD-1 expression in spleen CD4+ T cells and NK cells” value ([1]; spleen) of the same compound?
Answer: downregulated

Question: What about the “PD-L1 expression in spleen DCs and macrophages” value ([1]; spleen) of the same compound?
Answer: upregulated

Question: What about the “proportion of CD4+ T cells, CD8+ T cells and NK cells in the spleen” value ([1]; spleen) of the same compound?
Answer: did not induce such effects

Question: What about the “expression of IFN-γ and TNF-α in CD4+ T cells and CD8+ T cells” value ([1]; tumor) of the same compound?
Answer: upregulation

Question: And the IC50 (HDAC3/NCOR1 complex)?
Answer: 45 ± 20 nM

Question: And the “level of acetylated histone H3 (Ac-H3)” value (MDA-MB-231 cells)?
Answer: upregulation

Question: And the “level of acetylated tubulin (Ac-tubulin)” value (MDA-MB-231 cells)?
Answer: upregulation

Question: What about the TGI (MC38 syngeneic model) of the same compound?
Answer: 50%

Question: And the TGI (MDA-MB-231 xenograft)?
Answer: 60%

Question: For atezolizumab [anti-PD-L1], which TGI (B16F10 syngeneic model) is on record?
Answer: 62%
